According to patent US9856279B2 (AGIOS PHARMACEUTICALS, INC, priority 2011, dated 2018):

Assays:
[1] = system: U87MG cells; assay: Cellular assay for IDH1m inhibitors: inhibition of 2-HG production (LC-MS, 48 hours) in U87MG cells; assay type: cell-based; conditions: Homo sapiens, U-87 MG, inhibition of 2-HG production, U87R132H cells; read-out: U87R132H IC50
Summary of the method: (§1)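 Inhibition of 2-HG production was assessed in cells seeded at 5000/well and exposed to compound for 48 h (final DMSO 0.2%). Supernatant 2-HG was analysed by LC-MS.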

[2] = system: HT1080 cells; assay: Cellular assay for IDH1m inhibitors: inhibition of 2-HG production (LC-MS, 48 hours) in HT1080 cells; assay type: cell-based; conditions: Homo sapiens, HT-1080; inhibition of 2-HG production, HT1080 cells; read-out: HT1080 IC50
Summary of the method: as §1

[3] = biological target: IDH1 R132H (Homo sapiens, UniProt O75874, R132H); assay: Assay for IDH1 R132H inhibitors (NADPH/aKG, resazurin detection); assay type: biochemical; conditions: enzyme assay of Example 12; read-out: IDH1R132H IC50
Summary of the method: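 Read-out is resorufin fluorescence (Ex544/Em590) 5 min after adding a 30 μM resazurin detection mix. Before that, mutant enzyme (0.2 μg/ml in its mix) ran 50 min at room temperature with compound, 8 uM NADPH and 2 mM aKG (mix levels) in Tris pH 7.5 with NaCl, MgCl2, BSA.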

IDH1 R132H, sequence (O75874 whole entry R132H): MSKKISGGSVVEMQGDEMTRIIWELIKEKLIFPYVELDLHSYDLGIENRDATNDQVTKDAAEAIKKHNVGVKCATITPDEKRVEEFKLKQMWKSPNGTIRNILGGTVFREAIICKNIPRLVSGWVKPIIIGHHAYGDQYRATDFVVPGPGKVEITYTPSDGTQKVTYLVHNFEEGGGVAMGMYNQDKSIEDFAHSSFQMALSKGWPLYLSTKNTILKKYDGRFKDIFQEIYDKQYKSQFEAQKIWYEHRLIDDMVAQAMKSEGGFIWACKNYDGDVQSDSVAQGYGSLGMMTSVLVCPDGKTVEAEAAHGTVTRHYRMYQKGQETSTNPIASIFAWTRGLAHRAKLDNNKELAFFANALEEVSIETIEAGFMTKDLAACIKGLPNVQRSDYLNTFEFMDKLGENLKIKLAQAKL

IC50 [1] [nM] | IC50 [2] [nM] | IC50 [3] [nM] | SMILES
< 500 | < 500 | < 500 | C=Cc1cnnc(-c2cc(C#N)c(N3CCN(C(=O)COC)[C@H](C4CC4)C3)nc2C2CC2)c1 [Compound 724, (R)-6-cyclopropyl-2-(3-cyclopropyl-4-(2-methoxyacetyl)piperazin-1-yl)-5-(5-vinylpyridazin-3-yl)nicotinonitrile]
< 500 | < 500 | < 500 | C=Cc1cnc2c(-c3cc(C#N)c(N4CCN(C(=O)CCOC)[C@H](C)C4)nc3C3CC3)cccc2n1 [Compound 579, (R)-6-cyclopropyl-2-(4-(3-methoxypropanoyl)-3-methylpiperazin-1-yl)-5-(2-vinylquinoxalin-5-yl)nicotinonitrile]
< 500 | < 500 | < 500 | C=Cc1cc(COc2cc(C#N)c(N3CCN(C(=O)CCOC)[C@H](C)C3)nc2C2CC2)ccn1 [Compound 703, (R)-6-cyclopropyl-2-(4-(3-methoxypropanoyl)-3-methylpiperazin-1-yl)-5-((2-vinylpyridin-4-yl)methoxy)nicotinonitrile]
< 500 | < 500 | < 500 | C=Cc1cc(-c2cc(C#N)c(N3CCN(C(=O)C4CC4)[C@H](C4CC4)C3)nc2C2CC2)c2ccccc2n1 [Compound 542, (R)-2-(4-(cyclopropanecarbonyl)-3-cyclopropylpiperazin-1-yl)-6-cyclopropyl-5-(2-vinylquinolin-4-yl)nicotinonitrile]
1000 to 10000 | 1000 to 10000 | < 500 | COCCC(=O)N1CCN(c2nc(C3CC3)c(-c3ccc(C)c(F)c3)c(C)c2C#N)C[C@H]1C [Compound 266, (R)-6-cyclopropyl-5-(3-fluoro-4-methylphenyl)-2-(4-(3-methoxypropanoyl)-3-methylpiperazin-1-yl)-4-methylnicotinonitrile]
< 500 | < 500 | < 500 | C=Cc1cc(-c2c(C3CC3)nc(N3CCN(C(=O)CCCO)[C@H](C4CC4)C3)c(C#N)c2C)ccn1 [Compound 770, (R)-2-cyclopropyl-6-(3-cyclopropyl-4-(4-hydroxybutanoyl)piperazin-1-yl)-4-methyl-2′-vinyl-3,4′-bipyridine-5-carbonitrile]
< 500 | < 500 | < 500 | C=Cc1cnc2c(-c3c(C4CC4)nc(N4CCN(C(=O)CCOC)[C@H](C(C)C)C4)c(C#N)c3C)cccc2n1 [Compound 765, 6-cyclopropyl-2-((R)-3-isopropyl-4-(3-methoxypropanoyl)piperazin-1-yl)-4-methyl-5-(2-vinylquinoxalin-5-yl)nicotinonitrile]
< 500 | < 500 | < 500 | C=Cc1ccc2c(-c3cc(C#N)c(N4CCN(C(=O)CCO)[C@H](C5CC5)C4)nc3C3CC3)cncc2n1 [Compound 735, (R)-6-cyclopropyl-2-(3-cyclopropyl-4-(3-hydroxypropanoyl)piperazin-1-yl)-5-(2-vinyl-1,7-naphthyridin-5-yl)nicotinonitrile]
500 to 1000 | 500 to 1000 | < 500 | COCCC(=O)N1CCN(c2nc(C3CC3)c(-c3ccc(CNC(C)=O)cc3)c(C)c2C#N)C[C@H]1C [Compound 340, (R)—N-(4-{5-cyano-2-cyclopropyl-6-[4-(3-methoxy-propionyl)-3-methyl-piperazin-1-yl]-4-methyl-pyridin-3-yl}-benzyl)-acetamide]
